1 molecule from ChEMBL document CHEMBL1157031, “A novel copper complex of salicylaldehyde pyrazole hydrazone induces apoptosis through up-regulating integrin beta4 in H322 lung carcinoma cells” (Eur J Med Chem, 2010) can be followed below.

As usually defined, the IC50 is the concentration needed to halve the response being measured.

Each structure is given as a SMILES string. Activity calls are given as the source filed them. The calls are words filed in the database; no cut-off is given here.

In one assay the test system is NCI-H322. Briefly: Induction of apoptosis in human NCI-H322 cells at 10 uM by Hoechst 33258 staining in presence of CuCl2. Type of assay: functional, cell-based.
The test system of another assay is HUVEC. Briefly: Cytotoxicity against HUVEC cells after 48 hrs by MTT assay. It is filed as cell-based. Conditions: Homo sapiens. On the technique in general: Tetrazolium assays rely on reduction of a dye to a coloured formazan, in cell work by metabolically active cells.
A short description of assay [1]: Cytotoxicity against human NCI-H322 cells after 48 hrs by MTT assay. It is filed as functional, cell-based. Conditions: NCI-H322, 48 h.
The subject of the next assay is NCI-H1299. In words: Cytotoxicity against human NCI-H1299 cells after 48 hrs by MTT assay. It is filed as functional, cell-based. Conditions: NCI-H1299, 48 h.

In the case of `CC(C)(C)c1ccc(Cn2nc(-c3ccccc3)cc2C(=O)N/N=C/c2ccccc2O)cc1`, the outcome in the assay with NCI-H322 was Active. Further, the IC50 in the assay on HUVEC turned out to be 2.23 µM; in assay [1] it was 4.75 µM; in the assay with NCI-H1299, 5.78 µM.
